Results from PubChem BioAssay AID1259411 (Chemical Carcinogenesis Research Information System (CCRIS), 2018).
Active and inactive are the calls of the source. The rule behind the calls is not given here.

Test system: rodent carcinogenicity bioassays, tumor incidence
Test: CCRIS carcinogenicity studies
Method in brief: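 Archive of carcinogenicity, mutagenicity, tumor promotion and tumor inhibition results drawn from journals, NCI reports and other sources, expert-reviewed; covers 1985-2011 and is no longer updated.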

COc1ccc(N)cc1N
carcinogen call (Species: MOUSE, Strain/Sex: B6C3F1/FEMALE, Route: ORAL, Dose: 0, 0.12, 0.24% IN DIET FOR 78 WK (STUDY DURATION: 96-97 WK), Dose: 0, 0.12, 0.24% IN DIET FOR 78 WK (STUDY DURATION: 96-97 WK), Tumor Site: Type of Lesion: THYROID GLAND: FOLLICULAR CELL ADENOMA OR CARCINOMA): active; positive
carcinogen call (Species: MOUSE, Strain/Sex: B6C3F1/MALE, Route: ORAL, Dose: 0, 0.12, 0.24% IN DIET FOR 78 WK (STUDY DURATION: 96-97 WK), Dose: 0, 0.12, 0.24% IN DIET FOR 78 WK (STUDY DURATION: 96-97 WK), Tumor Site: Type of Lesion: THYROID GLAND: FOLLICULAR CELL ADENOMA): active; positive
carcinogen call (Species: RAT, Strain/Sex: F344/FEMALE, Route: ORAL, Dose: 0, 0.12, 0.5% TWA, IN DIET FOR 78 WK (STUDY DURATION: 107-110 WK), Dose: 0, 0.12, 0.5% TWA, IN DIET FOR 78 WK (STUDY DURATION: 107-110 WK), Tumor Site: Type of Lesion: THYROID GLAND: ADENOCARCINOMA (NOS) OR FOLLICULAR CELL CARCINOMA OR PAPILLARY CYSTADENOCARCINOMA (NOS), EAR (ZYMBAL GLAN): active; positive
carcinogen call (Species: RAT, Strain/Sex: F344/MALE, Route: ORAL, Dose: 0, 0.12, 0.5% TWA, IN DIET FOR 78 WK (STUDY DURATION: 107-109 WK), Dose: 0, 0.12, 0.5% TWA, IN DIET FOR 78 WK (STUDY DURATION: 107-109 WK), Tumor Site: Type of Lesion: THYROID GLAND: C CELL ADENOMA OR CARCINOMA, ADENOCARCINOMA (NOS), ADENOCARCINOMA (NOS) OR PAPILLARY ADENOCARCINOMA OR FO): active; positive

Cc1cc2c(c3ccc4ccccc4c13)C=C[C@@H](O)[C@@H]2O
carcinogen call (Species: MOUSE, Strain/Sex: ICR/FEMALE, Route: INTRAPERITONEAL, Dose: 8 NMOL/5 µL DMSO ON DAY 1, 16 NMOL/10 µL ON DAY 8, AND 32 NMOL/20 µL ON DAY 15 OF AGE (STUDY DURATION: 35 WK), Tumor Site: Type of Lesion: LUNG: TUMORS, LIVER: TUMORS): active; positive
carcinogen call (Species: MOUSE, Strain/Sex: ICR/MALE, Route: INTRAPERITONEAL, Dose: 8 NMOL/5 µL DMSO ON DAY 1, 16 NMOL/10 µL ON DAY 8, AND 32 NMOL/20 µL ON DAY 15 OF AGE (STUDY DURATION: 35 WK), Tumor Site: Type of Lesion: LUNG: TUMORS): active; positive

c1ccc2c(c1)cnc1ccccc12
carcinogen call (Species: RAT, Strain/Sex: SPRAGUE-DAWLEY/FEMALE, Route: SUBCUTANEOUS, Dose: 0, 200 UMOL/KG IN DMSO INTO SUPRASCAPULAR AREA ON DAY 1 OF LIFE FOLLOWED BY 0, 100 UMOL 1/WK AT WK 2-7 THEN 0, 200 UMOL/, Dose: 0, 200 UMOL/KG IN DMSO INTO SUPRASCAPULAR AREA ON DAY 1 OF LIFE FOLLOWED BY 0, 100 UMOL 1/WK AT WK 2-7 THEN 0, 200 UMOL/): inactive; negative
carcinogen call (Species: RAT, Strain/Sex: SPRAGUE-DAWLEY/MALE, Route: SUBCUTANEOUS, Dose: 0, 200 UMOL/KG IN DMSO INTO SUPRASCAPULAR AREA ON DAY 1 OF LIFE FOLLOWED BY 0, 100 UMOL 1/WK AT WK 2-7 THEN 0, 200 UMOL/, Dose: 0, 200 UMOL/KG IN DMSO INTO SUPRASCAPULAR AREA ON DAY 1 OF LIFE FOLLOWED BY 0, 100 UMOL 1/WK AT WK 2-7 THEN 0, 200 UMOL/): inactive; negative

CN(C)C(=O)Cl
carcinogen call (Species: MOUSE, Route: DERMAL, Tumor Site: Type of Lesion: INTEGUMENTARY SYSTEM (SKIN)): active; positive
carcinogen call (Species: MOUSE, Route: INTRAPERITONEAL, SUBCUTANEOUS, Tumor Site: Type of Lesion: INJECTION SITE): active; positive

[Be+2]
carcinogen call (Species: RAT, Strain/Sex: WISTAR/FEMALE, Route: INTRATRACHEAL, Dose: 50 UG THEN 25 UG AFTER 10 MO, Tumor Site: Type of Lesion: LUNG: ADENOMA, ADENOCARCINOMA, ALVEOLAR/BRONCHIOLAR TUMOR): active; positive

O=C1c2ccccc2C(=O)c2c(O)c(O)cc(O)c21
carcinogen call (Species: RAT, Strain/Sex: F344/MALE, Route: ORAL, Dose: 0, 1% IN DIET FOR 520 D (STUDY DURATION: 520 D), Tumor Site: Type of Lesion: URINARY BLADDER: CARCINOMA): active; positive

CCCCCCCCCCCCCC(=O)ON(C(C)=O)c1ccc2c(c1)Cc1ccccc1-2
carcinogen call (Species: RAT, Strain/Sex: F344/MALE, Route: SUBCUTANEOUS, Dose: 10.6 UMOL IN 0.2 ML DMSO-TRIOCTANOIN 1/WK FOR 6 WK, Tumor Site: Type of Lesion: INJECTION SITE: FIBROSARCOMA OR FIBROMYOSARCOMA OR FIBROLIPOSARCOMA): active; positive

ClC(Cl)=C(c1ccc(Cl)cc1)c1ccc(Cl)cc1
carcinogen call (Species: MOUSE, Strain/Sex: B6C3F1/FEMALE, Route: ORAL, Dose: 0, 148, 261 PPM IN DIET, TWA, Dose: 0, 148, 261 PPM IN DIET, TWA, Tumor Site: Type of Lesion: LIVER: HEPATOCELLULAR CARCINOMA): active; positive
carcinogen call (Species: MOUSE, Strain/Sex: B6C3F1/MALE, Route: ORAL, Dose: 0, 148, 261 PPM IN DIET, TWA, Dose: 0, 148, 261 PPM IN DIET, TWA, Tumor Site: Type of Lesion: LIVER: HEPATOCELLULAR CARCINOMA): active; positive
carcinogen call (Species: MOUSE, Strain/Sex: CF-1/MALE,FEMALE, Route: ORAL, Dose: 250 PPM IN DIET, Tumor Site: Type of Lesion: LIVER: HEPATOMA): active; positive
carcinogen call (Species: RAT, Strain/Sex: OSBORNE-MENDEL/FEMALE, Route: ORAL, Dose: 0, 242, 462 PPM IN DIET, TWA, Dose: 0, 242, 462 PPM IN DIET, TWA): inactive; negative
carcinogen call (Species: RAT, Strain/Sex: OSBORNE-MENDEL/MALE, Route: ORAL, Dose: 0, 437, 839 PPM IN DIET, TWA, Dose: 0, 437, 839 PPM IN DIET, TWA): inactive; negative

CC1=CC(=C(c2ccc(N)cc2)c2ccc(N)cc2)C=CC1=N
carcinogen call (Species: HUMAN, Route: ORAL, INHALATION, DERMAL, Tumor Site: Type of Lesion: URINARY BLADDER): active; positive
carcinogen call (Species: RAT, Strain/Sex: SPRAGUE-DAWLEY/FEMALE, Route: GAVAGE, Dose: 0, 200 MG/KG BW 2/WK FOR 8 WK WITH A 1 WK REST AFTER 2 WK THEN STARTING AT 9 WK 100 MG/KG BW 2/WK FOR DURATION OF STUDY): inactive; negative
carcinogen call (Species: RAT, Strain/Sex: SPRAGUE-DAWLEY/MALE, Route: GAVAGE, Dose: 0, 200 MG/KG BW 2/WK FOR 8 WK WITH A 1 WK REST AFTER 2 WK THEN STARTING AT 9 WK 100 MG/KG BW 2/WK FOR DURATION OF STUDY): inactive; negative

C=C/C=N/O
carcinogen call (Species: HAMSTER, Strain/Sex: SYRIAN/MALE, Route: GAVAGE, Dose: 0, 2 MG/WK FOR 53 WK (STUDY DURATION: 92 WK)): inactive; negative
carcinogen call (Species: RAT, Strain/Sex: F344/FEMALE, Route: ORAL, Dose: 0, 320 MG/L IN DRINKING WATER 5 D/WK FOR 100 WK (STUDY DURATION: 130 WK)): inactive; negative
carcinogen call (Species: RAT, Strain/Sex: F344/FEMALE, Route: ORAL, Dose: 0, 800 MG/L IN DRINKING WATER 5 D/WK FOR 30 WK (STUDY DURATION: 130 WK)): inactive; negative
carcinogen call (Species: RAT, Strain/Sex: F344/MALE, Route: ORAL, Dose: 0, 320 MG/L IN DRINKING WATER 5 D/WK FOR 100 WK (STUDY DURATION: 130 WK)): inactive; negative
carcinogen call (Species: RAT, Strain/Sex: F344/MALE, Route: ORAL, Dose: 0, 800 MG/L IN DRINKING WATER 5 D/WK FOR 30 WK (STUDY DURATION: 130 WK)): inactive; negative

CCC(=O)N(O)c1ccc(-c2ccccc2)cc1
carcinogen call (Species: RAT, Strain/Sex: STRAIN-CD/FEMALE, Route: INTRAPERITONEAL, Dose: 0, 100 UMOL/KG BW 2/WK FOR 6 WK (STUDY DURATION: 62 WK)): inactive; negative

CCC(C)[C@H]1O[C@]2(CC[C@@H]1C)CC1C[C@@H](C/C=C(\C)[C@@H](O[C@H]3C[C@H](OC)[C@@H](OC4C[C@H](OC)[C@@H](O)[C@H](C)O4)[C@H](C)O3)[C@@H](C)/C=C/C=C3\CO[C@@H]4[C@H](O)C(C)=C[C@@H](C(=O)O1)[C@]34O)O2 (some centres not stated) (tested in a mixture with another compound)
carcinogen call (Species: RAT, Strain/Sex: WISTAR/MALE, Route: ORAL, Dose: 0, 2 PPM IN DIET FOR DURATION OF STUDY (STUDY DURATION: 1 YR)): inactive; negative

Cc1ccc2c(c1N)C(=O)c1ccccc1C2=O
carcinogen call (Species: MOUSE, Strain/Sex: B6C3F1/FEMALE, Route: ORAL, Dose: 0, 0.06% OF DIET (2 DOSAGE REGIMENS--A & B RECEIVING SAME CONC), TWA, Tumor Site: Type of Lesion: LIVER: HEPATOCELLULAR CARCINOMA, NEOPLASTIC NODULE): active; positive
carcinogen call (Species: MOUSE, Strain/Sex: B6C3F1/MALE, Route: ORAL, Dose: 0, 0.06% OF DIET (2 DOSAGE REGIMENS--A & B RECEIVING SAME CONC), TWA): inactive; negative
carcinogen call (Species: RAT, Strain/Sex: F344/FEMALE, Route: ORAL, Dose: 0, 0.10, 0.20% OF DIET, Dose: 0, 0.10, 0.20% OF DIET, Tumor Site: Type of Lesion: LIVER: HEPATOCELLULAR CARCINOMA, NEOPLASTIC NODULE): active; positive
carcinogen call (Species: RAT, Strain/Sex: F344/MALE, Route: ORAL, Dose: 0, 0.10, 0.20% OF DIET, Dose: 0, 0.10, 0.20% OF DIET, Tumor Site: Type of Lesion: LIVER: HEPATOCELLULAR CARCINOMA, NEOPLASTIC NODULE, KIDNEY: TUBULAR CELL ADENOMA, TUBULAR CELL ADENOCARCINOMA, ADENOCARC): active; positive
